According to patent US11883491B2, “Compositions and methods for prevention and treatment of hearing loss” (ST. JUDE CHILDREN'S RESEARCH HOSPITAL, priority 2017, dated 2024):

What was measured:
[1] = tested on: neonatal mouse cochlear explants; assay: Atoh1-induced hair cell conversion in Atoh1-transfected neonatal mouse cochlear explants; format: cell-based
Method: Representative images show the immunostaining of cochlear explants transfected with Atoh1-IRES-GFP and treated with vehicle (FIGS. 1A and 1C) or 100 nM AG1478 (FIGS. 1B and 1D). Expression of hair cell marker Myo6 (↑) and Atoh1-transfected cells (GFP, ? ) are shown.
Atoh1 is transfected (O/E) in all conditions.

[2] = tested on: neonatal mouse cochlear explants; assay: Inhibitor alone: proliferation and differentiation of endogenous SCs and HCs in neonatal cochlear explants; format: cell-based; conditions: inhibitor by itself, after 7 days
Excerpt: Atoh1, a transcription factor, can convert non-sensory supporting cells (SCs) to hair cells (HCs) in neonatal and juvenile mammalian cochleae (Izumikawa, et al. (2005) Nature Med. 11:271-6; Kelly, et al. (2012) J. Neurosci. 32:6699-710; Liu, et al. (2012) J. Neurosci. 32:6600-10). Ectopic expression of Atoh1 has been approved for clinical trials as a gene therapy. However, Atoh1-induced HC conversion is inefficient (<17%), incomplete (lacking mature HC markers), and age-dependent (no response in adult cochlea) (Izumikawa, et al. (2008) Hearing Res. 240:52-6; Liu, et al. (2012) J. Neurosci. 32:6600-10). Using RNA-seq analysis to compare the transcriptome of SCs, endogenous outer HCs (OHCS), and Atoh1-induced HCs (cHCs) in adult mouse cochleae, it was observed that the epidermal growth factor receptor (EGFR) signaling is enriched in SCs and cHCs using gene set enrichment analysis (GSEA). To validate the role of EGFR pathway ex vivo, neonatal mouse cochlear explants were treated with a potent EGFR inhibitor (AG1478). […] In addition, inhibitors targeting proteins downstream of EGFR signaling were tested including WP1066 (STAT3 inhibitor), LY 294002 (PI3K inhibitor), U0126 (MEK inhibitor), and U73122 (PLC inhibitor) at various doses above their respective EC50 values. […]

FVB mice [3] = assay: Auditory brainstem response thresholds after transtympanic injection in adult mice; format: in vivo, mouse; conditions: adult (>P21) FVB mice, 10 μg transtympanic (TT) injection, 7 days after
Method: (§1) To further evaluate the use of an inhibitor of EGFR signaling in HC regeneration, the toxicity of AG1478 in neonatal and adult mice was assessed.

FVB mice [4] = assay: Toxicity (median lethal dose) in neonatal mice; format: in vivo, mouse; conditions: postnatal day 1 (P1) FVB mice, intraperitoneal (IP) injection; estimated
Method: as §1

HEI-OC1 cells [5] = assay: Protection against cisplatin-induced Caspase-3/7 activity / cell death in HEI-OC1 cells; format: cell-based, mouse; conditions: for protection against cisplatin-induced cell death: HEI-OC1, screen of 75 kinase inhibitors; for IC50: Mus musculus, HEI-OC1 cells
Method: (§2) A screen of a library composed of 75 kinase inhibitors was conducted to identify inhibitors that protect against cisplatin-induced hair cell loss.

mouse cochlear explants [6] = conditions: for protection against cisplatin-induced hair cell loss: cochlear explants, screen of 75 kinase inhibitors
Method: as §2

HEI-OC1 cells [7] = conditions: CELLTITER-GLO
Method: as §2

mouse cochlear explants [8] = assay: tissue or blood; conditions: read-out: IC50, protection against cisplatin-induced hair cell loss
Method: as §2

**Q.** Which results are given for `COc1cc2ncnc(Nc3cccc(Cl)c3)c2cc1OC` [AG1478, AG 1478]?
**A.** Atoh1-induced hair cell conversion (immunostaining Myo6/GFP) ([1]; 100 nM AG1478 vs vehicle, Atoh1-IRES-GFP transfected explants): increased; Atoh1-induced HC conversion from explant SCs ([1]; AG1478 combined with Atoh1, from 24.7% without inhibitor, FIGS. 1A-1D): 80.6%; impact on the proliferation and differentiation of endogenous SCs and HCs [2]: no impact; changes in auditory brainstem response (ABR) thresholds (FVB mice [3]): no significant changes; median lethal dose (LD50) (FVB mice [4]): 30 mg/kg

**Q.** How did the “protection against cisplatin-induced cell death” value (HEI-OC1 cells [5]) turn out when `CC1(COc2ccc3c(c2)ncn3-c2ccc3cccc(N4CCC(N)CC4)c3n2)COC1` [CRENOLANIB, Crenolanib] was run?
**A.** The value was “potently protected”.

**Q.** What about the “protection against cisplatin-induced hair cell loss” value (mouse cochlear explants [6]) of the same compound?
**A.** Its value is “potently protected”.

**Q.** With `CC(C)(C)c1nc(-c2cccc(NS(=O)(=O)c3c(F)cccc3F)c2F)c(-c2ccnc(N)n2)s1` [GSK2118436A, dabrafenib] as the compound, how does the “protection against cisplatin-induced cell death” value (HEI-OC1 cells [5]) read?
**A.** The value was “potently protected”.

**Q.** What about the “protection against cisplatin-induced hair cell loss” value (mouse cochlear explants [6]) of the same compound?
**A.** Its value is “potently protected”.

**Q.** `FC(F)(F)c1ccc(/C=C/c2nc(COc3ccc(CCCCn4ccnn4)cc3)co2)cc1` [MUBRITINIB, Mubritinib] was tested. Which “protection against cisplatin-induced cell death” value (HEI-OC1 cells [5]) did it give?
**A.** The value was “potently protected”.

**Q.** And the IC50 (HEI-OC1 cells [5])?
**A.** The IC50 was 4 nM.

**Q.** And the LD50 (HEI-OC1 cells [7])?
**A.** The LD50 was > 55 µM.

**Q.** And the IC50 (mouse cochlear explants [8])?
**A.** Its IC50 is 2.5 nM.

**Q.** What about the “protection against cisplatin-induced hair cell loss” value (mouse cochlear explants [6]) of the same compound?
**A.** The value was “potently protected”.

**Q.** What about the LD50 (mouse cochlear explants [6]; mouse cochlear explants) of the same compound?
**A.** Its LD50 is > 500 nM.

**Q.** What about the “Therapeutic Index” value (mouse cochlear explants [6]; mouse cochlear explants, LD50/IC50) of the same compound?
**A.** The value was > 200.

**Q.** With `CCOc1cc2ncc(C#N)c(Nc3ccc(F)c(Cl)c3)c2cc1NC(=O)/C=C/CN(C)C` [PELITINIB, Pelitinib] as the compound, how does the IC50 (HEI-OC1 cells [5]; cisplatin-Glo 3/7) read?
**A.** The IC50 was 600 nM.

**Q.** And the “protection of outer hair cells against cisplatin-induced hair cell loss” value (mouse cochlear explants [6]; 1 hour pre-incubation, N=3)?
**A.** The value was 49%.

**Q.** Which “protection against cisplatin-induced cell death” value (HEI-OC1 cells [5]) does the source give for `O=C(Nc1cccc(Cl)c1)Nc1ncc(CCNc2ncnc3ccsc23)s1` [SNS314] here?
**A.** The value was “potently protected”.

**Q.** And the “protection against cisplatin-induced hair cell loss” value (mouse cochlear explants [6])?
**A.** Its value is “potently protected”.
